# Test results as given in US11427595B2, “Compositions and methods for inhibiting viral infection” (Trustees of Boston University, priority 2018, dated 2022).
# Where two headings read alike, the source gives them in different places.
# Key:
# JFH-1 HCVcc-Luc = assay: microbe, parasite or virus in culture; type: cell-based, Hepatitis C virus; details: for EC50: Hepatitis C virus, Huh-7.5.1, read-out: EC50, inhibition of HCV infection; for inhibition of HCV infection (in words): Huh7.5.1 cells, comparisons are to aglaroxin C (6)
# Huh7.5.1 cells [1] = assay: Cytotoxicity, CellTiter-Glo Cell Viability Luminescent Assay; type: cell-based, human
# Description: (§1) To determine the […] of each compound, Huh7.5.1 cells were treated with compounds or DMSO at indicated doses for 3 h in 96-well plates. After removal of compounds, cells were further incubated for 72 h prior to the viability assay. The numbers of viable cells in culture were determined using the CellTiter-Glo Cell Viability Luminescent Assay kit according to the manufacturer's instruction (Promega). Percentages of toxicity were calculated using the formulas: 100-percentage of vial cells relative to that from the dimethyl sulfoxide (DMSO) treated group (100%) (n=3) (FIG. 20-FIG. 57).
# Huh7.5.1 cells [2] = assay: MTS cell viability assay; type: cell-based, human; details: 3 h treatment, 72 h incubation
# Text: In this comparison, niclosamide was used as a positive control, which is known as HCV inhibitor (unclear mechanisms). Data from CellTiter-Glo assay was obtained from separate experiments conducted on a different date.
# MTS (3-(4,5-dimethylthiazol-2-yl)-5-(3-carboxymethoxyphenyl)-2-(4-sulfophenyl)-2H-tetrazolium)) assay is a colorimetric assay used to determine the mitochondrial metabolic rate by quantifying the reduced formazan product of MTS in cells to reflect viable cells. To determine the CC50 of each compound, Huh7.5.1 cells were treated with compounds or DMSO at indicated doses for 3 h in 96-well plates. After removal of compounds, cells were further incubated for 72 h prior to conducting the viability assay. The MTS assay in this study is accordance with a protocol provided by manufacturer (Promega, Madison, Wis. USA). One-fifth volume of MTS reagent was added into the culture supernatant at indicated time points. Plates were incubated at 37° C. for 3 hours with 5% CO2 followed by measuring the absorbance at 490 nanometers (nm) with an ELISA reader (SpectraMax Plus 385, Molecular Devices, USA). Percentages of toxicity were calculated using the formulas: 100-percentage of vial cells relative to that from the dimethyl sulfoxide (DMSO) treated group (100%) (n=3) (FIG. 68-FIG. 71).
# [3] = test system: HCV replicon cell line 2-3+ (full-length HCV Genotype 1b RNA genome); assay: HCV replicon system: viral RNA replication and protein synthesis; type: cell-based, Hepatitis C virus; details: 2 μM for 3 h; for HCV RNA replication: viral RNA by real-time PCR after 48 or 72 h; for HCV protein synthesis (translation): NS5 by Western blotting after 48 or 72 h
# Description: HCV replicon cell line 2-3+ was treated with the indicated compounds for 3 h. Cells were incubated for an additional 48 hours (FIG. 10A and FIG. 10C) or 72 hours (FIG. 10B and FIG. 10D). Cellular RNA or protein was isolated for quantifications of HCV viral RNA by real-time PCR (FIG. 10A and FIG. 10B) or […] NS5 by Western blotting (FIG. 10C and FIG. 10D).
# Next, the ability of the aglaroxin C analogues to inhibit HCV RNA replication and mRNA translation was investigated using an HCV replicon system which harbors a full-length HCV Genotype 1b RNA genome. In replicon cells, HCV RNA replicates and is translated into viral proteins without forming infectious viruses. […] To corroborate these findings, an in vitro translation inhibition assay was assembled where a bicistronic reporter mRNA was programmed for translation in Krebs-2 extracts FIG. 11A-11B.
# Cells and Antibodies. The human liver cell line Huh7.5.1 was provided by Scripps Research Institute. The full-length HCV Genotype 1b-replicon-containing cell line 2-3(+) was a gift from University of North Carolina, Chapel Hill, N.C. The Aedes albopictus cell line C6/36 was purchased from American Type Culture Collection (ATCC) (CRL-1660). All cell lines were maintained in DMEM supplemented with 5% penicillin and streptomycin, 1% NEAA, and 10% fetal bovine serum (FBS) (Gemini Bio-Products). The β-actin antibody (clone AC-74) was purchased from Sigma. The HCV NS5A monoclonal antibody 9E10 was a gift from Rockefeller University. Secondary antibodies were purchased from Jackson ImmunoResearch Laboratories, Inc, and Molecular Probes (Invitrogen). Primer sequences are: Dengue 16681: F: 5′-[…]-3′ (SEQ ID NO: 3); R: 5′-[…]-3′ (SEQ ID NO: 4). GAPDH: F: 5′-[…]-3′ (SEQ ID NO: 5); R: 5′-[…]-3′ (SEQ ID NO: 6).
# [4] = test system: cap-dependent Firefly luciferase (FLuc) translation; assay: In vitro translation of bicistronic FF/HCV/Ren mRNA in Krebs-2 extracts, cap-dependent; type: biochemical; details: 1 μM, relative to DMSO
# Text: (§2) In this system, Firefly luciferase (FLuc) translation is cap-dependent whereas Renilla luciferase (RLuc) expression HCV-IRES dependent. […] Results are presented relative to values obtained in the presence of DMSO ad expressed as mean±error of two biological replicates.
# (§3) In this system, translation of the Firefly luciferase (FLuc) translation is cap-dependent whereas Renilla luciferase (RLuc) translation is dependent upon the HCV internal ribosome entry site (IRES) FIG. 11A.
# (§4) In vitro transcriptions and translations were performed as described previously. Plasmid encoding the bicistronic FF/HCV/Ren open reading frame was linearized with BamHI and m^7Gppp-capped mRNA was produced by in vitro transcription reactions using SP6 RNA polymerase. In vitro translation reactions were performed with S10 extracts prepared from Kreb-2 cells and programmed with 4 ng/uL of in vitro transcribed mRNA. Firefly (FF) and Renilla (Ren) luciferase activities were measured on a Berthold Lumat LB9507 Luminometer and values normalized against vehicle control, which was set at 1.
# [5] = test system: HCV internal ribosome entry site (IRES)-dependent Renilla luciferase (RLuc) translation; assay: In vitro translation of bicistronic FF/HCV/Ren mRNA in Krebs-2 extracts, HCV IRES-dependent; type: biochemical, Hepatitis C virus; details: 1 μM, relative to DMSO
# Text: as §2, §3, §4
# HCVpp = type: cell-based, Hepatitis C virus; details: Huh7.5.1 cells, racemates and single (+)-enantiomers, 1 μM or 2 μM for 3 h, luciferase after 48 h
# CHIKVpp = type: cell-based, Chikungunya virus; details: Huh7.5.1 cells, racemates and single (+)-enantiomers, 1 μM or 2 μM for 3 h, luciferase after 48 h
# Ebolapp = type: cell-based, Ebola virus
# VSVpp = type: cell-based, vesicular stomatitis virus
# HCVcc-Luc = assay: HCVcc time-of-addition assay; type: cell-based, Hepatitis C virus; details: Huh7.5.1 cells, 0.5 μM for 3 h, luciferase after 48 h
# [6] = test system: OHFV viral envelope protein-mediated entry; type: cell-based, Omsk Hemorrhagic Fever Virus (OHFV)
# [7] = test system: JEV viral envelope protein-mediated entry; type: cell-based, Japanese encephalitis virus; details: Huh7.5 cells, FIG. 73C
# [8] = test system: WNV viral envelope protein-mediated entry; type: cell-based, West Nile virus; details: Huh7.5 cells, FIG. 73C
# [9] = test system: Denv viral envelope protein-mediated entry; type: cell-based, Dengue virus; details: Huh7.5 cells, FIG. 73C
# [10] = test system: Zika viral envelope protein-mediated entry; type: cell-based, Zika virus; details: Huh7.5 cells, FIG. 73C
# translation = details: previous studies; cited from earlier work
# [11] = test system: Dengue virus (serotype 2, Thailand 16681 strain); type: cell-based; details: Huh7.5.1 cells, MOI 0.1, 2 μM for 3 h, viral RNA 48 h post-infection normalized against GAPDH
# [12] = Cytotoxicity, CellTiter-Glo Cell Viability Luminescent Assay; type: cell-based, human; details: human; Huh7.5.1 cells, 3 h treatment, viability after 72 h; concentration giving 50% cell death
# Description: as §1
# [13] = test system: hepatitis C viral (HCV) entry into host cells; details: separate earlier studies; cited from earlier work
# [14] = test system: Dengue virus (serotype 2, Thailand 16681 strain); details: comparison named in the text, no data shown; cited from earlier work
smiles,measurement,setting,value
"COc1ccc([C@@]23Oc4cc(OC)cc(OC)c4[C@]2(O)c2nc(-c4ccc(C)cc4)[nH]c(=O)c2[C@H]3c2ccccc2)cc1 (racemic) [12l, (5R,5aR,10bS)-10b-Hydroxy-8,10-dimethoxy-5a-(4-methoxyphenyl)-5-phenyl-2-(p-tolyl)-3,5,5a,10b-tetrahydro-4H-benzofuro[2′,3′:4,5]cyclopenta[1,2-d]pyrimidin-4-one]",EC50,JFH-1 HCVcc-Luc,~0.5 µM
same,inhibition of HCV infection (in words),JFH-1 HCVcc-Luc,three-fold greater inhibition
same,"AUC0.2-200, area under the cytotoxicity curve (in words)",Huh7.5.1 cells [1],relatively lower cytotoxicities
same,toxicity curve in MTS assay compared with CellTiter-Glo assay,Huh7.5.1 cells [2],nearly identical toxicity curves
same,HCV RNA replication,[3],neither inhibit HCV RNA replication
same,translation inhibition of firefly luciferase (cap-dependent),[4],minimal
same,HCV mRNA (IRES-dependent) translation,[5],not inhibited
same,inhibition of HCVpp infection,HCVpp,specifically inhibited
same,inhibition of CHIKVpp infection,CHIKVpp,specifically inhibited
same,inhibition of Ebolapp infection,Ebolapp,not
same,inhibition of VSVpp infection,VSVpp,not
same,anti-HCV activity when added 3 h after infection was initiated,HCVcc-Luc,partially lost their activity
same,anti-HCV activity when added together with the virus,HCVcc-Luc,maximal anti-HCV activity
"COc1ccc([C@@]23Oc4cc(OC)cc(OC)c4[C@]2(O)c2nc(-c4cccc(OC)c4)[nH]c(=O)c2[C@H]3c2ccccc2)cc1 (racemic) [12s, (5R,5aR,10bS)-10b-Hydroxy-8,10-dimethoxy-2-(3-methoxyphenyl)-5a-(4-methoxyphenyl)-5-phenyl-3,5,5a,10b-tetrahydro-4H-benzofuro[2′,3′:4,5]cyclopenta[1,2-d]pyrimidin-4-one]",EC50,JFH-1 HCVcc-Luc,~0.5 µM
same,inhibition of HCV infection (in words),JFH-1 HCVcc-Luc,three-fold greater inhibition
same,"AUC0.2-200, area under the cytotoxicity curve (in words)",Huh7.5.1 cells [1],relatively lower cytotoxicities
same,HCV RNA replication,[3],neither inhibit HCV RNA replication
same,translation inhibition of firefly luciferase (cap-dependent),[4],minimal
same,HCV mRNA (IRES-dependent) translation,[5],not inhibited
same,inhibition of HCVpp infection,HCVpp,specifically inhibited
same,inhibition of CHIKVpp infection,CHIKVpp,specifically inhibited
same,inhibition of Ebolapp infection,Ebolapp,not
same,inhibition of VSVpp infection,VSVpp,not
same,anti-HCV activity when added 3 h after infection was initiated,HCVcc-Luc,partially lost their activity
same,anti-HCV activity when added together with the virus,HCVcc-Luc,maximal anti-HCV activity
same,anti-HCV activity when added together with the virus,HCVcc-Luc; listed as (±)-12s,inhibited HCV infection
"COc1ccc([C@@]23Oc4cc(OC)cc(OC)c4[C@]2(O)C2=C(C(=O)N4CCC[C@H]4N2)[C@H]3c2ccccc2)cc1 [compound 5, aglaiastatin]","% infection, OHFV envelope",[6],under 1%
same,"% infection, JEV envelope",[7],under 1%
same,"% infection, WNV envelope",[8],under 1%
same,"% infection, Denv envelope",[9],under 1%
same,"% infection, Zika envelope",[10],under 1%
same,translation inhibition (in words),translation,promising translation inhibitor
COc1ccc([C@@]23Oc4cc(OC)cc(OC)c4[C@]2(O)c2nc(-c4cccc(OC)c4)[nH]c(=O)c2[C@H]3c2ccccc2)cc1 [(+)-12s],inhibition of HCV infection (in words),JFH-1 HCVcc-Luc,displayed HCV inhibition
same,maximum cytotoxicity plateau compared to racemic counterparts,Huh7.5.1 cells [1]; Huh7.5.1 cells,increased substantially
same,HCV protein synthesis (translation),[3],did not inhibit
same,HCV RNA replication,[3],did not inhibit
same,inhibition of Dengue virus infection,[11],inhibited Dengue virus infection
"COc1ccc([C@@]23Oc4cc(OC)cc(OC)c4[C@]2(O)c2nc4n(c(=O)c2[C@H]3c2ccccc2)CCC4)cc1 [compound 6, Aglaroxin C, reference compound]",EC50,JFH-1 HCVcc-Luc,1.3 µM
same,CC50,[12],12 µM
same,cytotoxicity (in words),"Huh7.5.1 cells [1]; Huh7.5.1 cells, comparisons are to aglaroxin C (6)",plateauing of cytotoxicity
same,HCV RNA replication,[3],neither inhibit HCV RNA replication
same,translation inhibition of firefly luciferase (cap-dependent),[4],minimal
same,HCV mRNA (IRES-dependent) translation,[5],not inhibited
same,anti-HCV activity when added 3 h after infection was initiated,HCVcc-Luc,partially lost their activity
same,anti-HCV activity when added together with the virus,HCVcc-Luc,maximal anti-HCV activity
same,translation inhibition (in words),translation,only moderate translation inhibition
same,concentration inhibiting HCV entry into host cells,[13],low μM concentration
COc1ccc([C@@]23Oc4cc(OC)cc(OC)c4[C@]2(O)c2nc(-c4ccc(C)cc4)[nH]c(=O)c2[C@H]3c2ccccc2)cc1 [(+)-12l],inhibition of HCV infection (in words),JFH-1 HCVcc-Luc,displayed HCV inhibition
same,maximum cytotoxicity plateau compared to racemic counterparts,Huh7.5.1 cells [1]; Huh7.5.1 cells,increased substantially
same,HCV protein synthesis (translation),[3],did not inhibit
same,HCV RNA replication,[3],did not inhibit
same,inhibition of Dengue virus infection,[11],inhibited Dengue virus infection
same,anti-HCV activity when added together with the virus,HCVcc-Luc,inhibited HCV infection
COc1ccc([C@@]23Oc4cc(OC)cc(OC)c4[C@]2(O)[C@H](O)[C@H](C(=O)N(C)C)[C@H]3c2ccccc2)cc1 [rocaglamide],inhibition of Dengue virus infection,[14],inhibited Dengue virus infection
